In patent publication US20150253323A1, “METHODS AND KITS FOR HIGH THROUGHPUT SCREENING FOR COMPOUNDS TARGETING DNA-BINDING AND RNA-BINDING PROTEINS” (The Florida International University Board of Trustees, priority 2014, published 2015):
“Also recorded” adds a separate entry of the source. Where a name gives a salt, the structure may show the parent alone. Read-outs that look alike come from different tables or passages of the source.

How the values were obtained:
[1] = test system: 3T3-L1 cells; assay: Oil Red O staining of differentiated 3T3-L1 cells (adipogenesis); type: cell-based, mouse; conditions: for IC50: 3T3-L1, Oil Red O absorbance 492 nm, read-out: inhibition IC50 of neutral lipids in the differentiated cells
Description: Mouse pre-adipocytes (3T3-L1 cells) were a gracious gift from Dr Jun Liu at Mayo Clinic. 3T3-L1 cells were maintained in DMEM supplemented with 10% FBS, 100 U/ml penicillin, 100 μg/ml streptomycin and 5 μg/ml plasmocin. The cells were grown under normal culture conditions of 5% CO2 and humidity. Cells were maintained for a minimum of three passages in linear growth prior to differentiation. To differentiate the 3T3-L1 pre-adipocytes into adipocytes, we used the protocol previously described by Zebisch et al. (Zebisch, K., et al. (2012)). Briefly, 3T3-L1 pre-adipocytes were sub-cultured in DMEM supplemented with 5% newborn calf serum, 100 U/ml penicillin, 100 μg/ml streptomycin and 5 μg/ml plasmocin (Basal Media 1—BM1). The cells were then plated at 6×10^5 cells per dish in 35-mm dishes, 3×10^5 cells per well in a 12-well plate, 1.5×10^5 cells in a 24-well plate or 3.0×10^4 cells per well in a 96-well plate. The cells were grown to confluency with BM1 replacement every other day. Following 48 h of confluency, 3T3-L1 cells were treated with Differentiation medium 1 (DM1), which is BM1 supplemented with […] iso-butyl-methylxanthine, 0.25 μM dexamethasone, 1 μg/ml insulin and 2 μg/ml rosiglitazone. After 48 h, the medium was replaced with differentiation medium 2 (DM2); this is BM1 supplemented with 1 μg/ml insulin. On the seventh day, the cells were placed in DMEM with FBS. The cells were cultured to the date indicated in the experiments below with media changes every other day. The presence of adipogenesis was confirmed by microscopic detection of adipose bodies in the cells. For our experiments, only cultures with >80% differentiation were used.
Following differentiation and drug treatment, Oil Red O staining was used to qualitatively and quantitatively assess the level of neutral lipids in the differentiated cells. For qualitative assessment by phase microscopy, cells were washed twice in PBS and then fixed with 10% formalin for 30 min at room temperature. Oil Red O was reconstituted at 300 mg per 100 ml of isopropanol. The Oil Red O solution was prepared for staining by adding 20 ml of deionized water to 30 ml of the Oil Red O stock solution and filtered. The cells were then incubated for 5 min in 60% isopropanol. The Oil Red O working solution was then added to cells for 5 min. The monolyers were then rinsed clean with deionized water. The cells were then visualized using phase microscopy on the EVOS XL Core microscope. For quantitative assessment of adipogenesis in 96-well formats, cells were lysed in dimethylsulfoxide (DMSO) following the water wash of Oil Red O stained cells. The DMSO released the intracellular Oil Red O into the solution. The absorbance (492 nm) was measured using the BioTek Synergy H1 plate reader.

[2] = test system: HMGA2; assay: In-cell western analysis of HMGA2 expression in 3T3-L1 cells; type: cell-based, mouse; conditions: normalized to TO-PRO-3, FIGS. 17F and G
Description: Specific protein levels were analyzed using in-cell western technology (Egorina, E. M., et al (2006)). During differentiation and drug administration, 3T3-L1 cells were fixed in 4% paraformaldehyde in PBS for 25 min at room temperature. Pre-adipocytes were quenched by washing the cells in 100 mM glycine for 5 min at room temperature. The cells were permeabilized by incubating the cells in 0.2% Triton X-100 in PBS for 30 min at room temperature. The cells were then blocked using LICOR Odyssey Blocking Buffer (LI-COR Biosciences, 927-40100) for 1 h at room temperature. Cells were then incubated with a primary antibody for HMGA2 (Cell Signaling Technologies #5269) at a 1:500 dilution in LI-COR Odyssey Blocking Buffer supplemented with 0.1% Tween-20 for 2.5 h at room temperature. The cells were washed in 0.1% Tween in PBS. Secondary antibodies (IRDye 800CW anti-rabbit, LI-COR Biosciences, 926-32211) were incubated at a dilution of 1:1000 in LI-COR Blocking Buffer supplemented with 0.1% Tween-20 for 1 h. Concurrent to the addition of secondary antibody TO-PRO-3 (Invitrogen) was added at a 1:1000 dilution as a normalization control for cell number and incubated for 1 h. The cells were washed again in 0.1% Tween-20 in PBS. Plates were then scanned on the LICOR Biosciences Odyssey CLx Infrared Imaging System and quantified using the LI-COR in-cell western analysis in Image Studio.

[3] = test system: HMGA2-FL814 interaction; assay: PDI-ELISA for HMGA2 binding to DNA oligomer FL814; parameters: species or system mammalian; conditions: for OD450 of the PDI-ELISA in the presence of the compound: 100 nM compound, 100 nM FL814, 1 μM HMGA2, 2×SSCT, OD450 without drug 1.44; for inhibition of HMGA2-FL814 interactions: compound at 100 nM in 2×SSCT, FIG. 12 / Table 1; for IC50: netropsin titration
[4] = test system: FL814; assay: Competition dialysis assay, free FL814; type: binding
[5] = biological target: T1, HMGA2-FL814 complex (Mus musculus, UniProt P52927); assay: Competition dialysis assay, HMGA2-FL814 complex; conditions: 3 μM complex dialyzed against 0.73 μM TMPyP4, 72 h, 2×SSCT
T1 sequence (P52927 2-108 limits assumed): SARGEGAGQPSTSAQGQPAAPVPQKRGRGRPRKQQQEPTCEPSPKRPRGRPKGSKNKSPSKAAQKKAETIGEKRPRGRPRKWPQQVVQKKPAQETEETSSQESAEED

[6] = biological target: T2, HMGA2 (high mobility group protein AT-hook 2) (mammalian, UniProt P52926 P52926:2-109); assay: ELONA; duplex without hairpin loop; 100 nM DNA, 1 uM HMGA2; binding enhanced by TMPyP4; conditions: tags: purified as in Cui et al. 2007
T2 sequence: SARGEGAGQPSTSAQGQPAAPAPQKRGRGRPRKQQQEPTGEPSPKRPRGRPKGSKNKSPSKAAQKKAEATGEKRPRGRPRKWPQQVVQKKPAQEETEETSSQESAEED

C=C1C(=O)OC(CCCCCCCC)C1C(=O)O (stereo not drawn) [C-75]
IC50 [1]: 3700 ± 800 nM

Cn1cc(NC(=O)c2cc(NC(=O)CN=C(N)N)cn2C)cc1C(=O)NCCC(=N)N [Netropsin, netropsin dihydrochloride]
inhibition of differentiation of 3T3-L1 cells to adipocytes ([1]; FIGS. 17A-17G): strongly inhibited
inhibition at 10 µM ([1]; Mus musculus, 10 μM, Oil red O staining, differentiated 3T3-L1 cells, read-out: inhibition of neutral lipid production): > 50%
IC50 ([1]; Mus musculus): 7900 ± 1100 nM
HMGA2 expression in fully differentiated 3T3-L1 cells in the presence of the compound [2]: expressed
OD450 of the PDI-ELISA in the presence of the compound [3]: 0.152
inhibition of HMGA2-DNA interactions (OD450 back to background) ([3]; 500 nM or 1 μM netropsin, FIG. 10A, dihydrochloride): complete inhibition; also recorded: completely inhibited
inhibition of HMGA2-FL814 interactions ([3]; dihydrochloride): completely inhibit
inhibition of HMGA2-FL814 interactions ([3]; listed as netropsin, dihydrochloride): potently inhibit
IC50 ([3]; FIG. 10B, 0.5 μM HMGA2, read-out: inhibitory IC50 of HMGA2 binding to FL814): ~10 nM
IC50 ([3]; FIG. 11B, three titration experiments, read-out: apparent inhibitory IC50 of HMGA2 binding to FL814): 9.3 ± 0.78 nM

C[n+]1ccc(-c2c3nc(c(-c4cc[n+](C)cc4)c4ccc([nH]4)c(-c4cc[n+](C)cc4)c4nc(c(-c5cc[n+](C)cc5)c5ccc2[nH]5)C=C4)C=C3)cc1 [TMPyP4]
binding to FL814 ([4]; 3 μM FL814 dialyzed against 0.73 μM TMPyP4, 72 h, 2×SSCT): tightly
binding stoichiometry to FL814 ([4]; competition dialysis, 0.73 μM TMPyP4): two molecules of TMPyP4 bind to one molecule of FL814
enhancement of HMGA2 binding to double stranded oligomer (FL842/FL843) without loop ([3]; 100 nM annealing product of FL842 and FL843, 1 μM HMGA2, FIG. 15B): able to enhance the binding; also recorded: enhancement
OD450 of the PDI-ELISA in the presence of the compound [3]: Very high
enhancement of HMGA2 binding to FL814 (OD450) ([3]; titration, 100 nM FL814, 1 μM HMGA2, FIG. 14): dramatically enhance; also recorded: significantly enhanced
binding to the FL814-HMGA2 complex [5]: tightly

B1: FL842/FL843 duplex (dsDNA)
DNA 1: CCCCCCATATTCGCGATTATTGCGC
DNA 2: GCGCAATAATCGCGAATATGGGGGG
binding result [6]: binds
